Columns and labels:
[1] = test system: myometrial cells; experiment: Collagen type I and III messenger RNA expression by RNA blotting, myometrial cells; assay type: cell-based
[2] = test system: myometrial cells; experiment: Pirfenidone: cell proliferation (tritiated thymidine incorporation, cell number), myometrial cells; assay type: cell-based; conditions: p<0.01
Excerpt: (§1) We have also discovered that pirfenidone is a response-blocking compound. Pirfenidone is an antifibrotic agent which is being investigated for use in patients with pulmonary fibrosis. […] Possible cytotoxic effects were examined using lactate dehydrogenase assays and trypan blue exclusion.

[3] = test system: myometrial cells; experiment: Cytotoxicity (lactate dehydrogenase assay, trypan blue exclusion), myometrial cells; assay type: cell-based
Excerpt: as §1
(§2) Additionally, the effect of pirfenidone on cell proliferation and the percentage of dead cells was examined, and the results from the two experiments are shown in FIG. 12.

[4] = test system: leiomyoma cells; experiment: Collagen type I and III messenger RNA expression by RNA blotting, leiomyoma cells; assay type: cell-based
[5] = test system: leiomyoma cells; experiment: Pirfenidone: cell proliferation (tritiated thymidine incorporation, cell number), leiomyoma cells; assay type: cell-based; conditions: p<0.01
Excerpt: as §1

[6] = test system: human fibroblasts; conditions: in response to bFGF, TGFB and PDGF; cited from earlier work
[7] = test system: leiomyoma cells; experiment: Cytotoxicity (lactate dehydrogenase assay, trypan blue exclusion), leiomyoma cells; assay type: cell-based
Excerpt: as §1, §2

[8] = test system: vascular smooth muscle cells, T cells, and fibroblasts; conditions: wide variety of cells; cited from earlier work
[9] = test system: FGF / specific cell surface receptors; conditions: cited from earlier work
[10] = test system: uterine stromal cells; experiment: Proliferation of uterine stromal cells (cell counts); assay type: cell-based; conditions: only in the presence of progesterone (10 ng/ml bFGF + 100 nm MPA); 7 days
Method: Stromal cells were used at the first passage and were plated into 100 mm dishes (200,000/dish) in serum-containing medium. The following day, cells were rinsed and transferred to serum-free medium containing insulin, transferrin and selenium. Cells remained in this medium for 48 hr to induce quiescence and then received fresh serum-free medium with one of the following treatments: ITS (medium containing only insulin, transferin, and selenium), ITS+10% fetal bovine serum, MPA (ITS+100 nm medroxy progesterone acetate), E2 (ITS+10 nm estradiol 17-beta), bFGF (ITS+10 ng/ml bFGF), bFGF/E2/MPA (ITS+100 nm MPA+10 nm estradiol+10 ng/ml bFGF), bFGF+2% fetal bovine serum (ITS+10 ng/ml bFGF+2% fetal bovine serum), bFGF+MPA (ITS+10 ng/ml bFGF+100 nm MPA) and bFGF+E2 (TS+10 ng/ml bFGF+10 nm estradiol). Cells were treated for a total of 7 days with cell counts performed on days 2, 4 and 7.

[11] = test system: cultured human myometrial smooth muscle cells; experiment: DNA synthesis (tritiated thymidine incorporation) in cultured myometrial smooth muscle cells; assay type: cell-based; conditions: for basal and serum-stimulated DNA synthesis (tritiated thymidine incorporation): interferon 10, 100, 1000 U/ml, 24 hr, serum-free 0.1% BSA or 10% fetal bovine serum
Method: (§3) Myometrial and leiomyoma cells from the same patients were used at first passage for proliferation assays. 10,000 cells were plated per well in 96-well plates in medium+10 % serum. Cells were cultured for three days and then placed in serum-free medium for 48 hr to attain quiescence. Interferon-α was tested at the following doses in 10% serum-containing medium; 0, 10, 100 and 1000 U/ml for a period of 24 hr. Tritiated thymidine (luCi/ml) was added to the culture wells for the final 4-6 hr of incubation, the medium removed, cells harvested and counted for thymidine incorporation.
(§4) Effects on basal DNA synthesis were tested using cells cultured in serum-free medium containing only 0.1% BSA while effects on serum-stimulated cells were assessed using cells cultured in medium with 10% fetal bovine serum.
(§5) FIGS. 6c and 6d show the effects of interferon-α on bFGF induced increases in DNA synthesis by uterine myometrial and leiomyoma cells, respectively. Cells were treated with either medium+10% serum of various concentrations of bFGF (0.5 ng/ml, 1.0 ng/ml, 5.0 ng/m. and 10 ng/ml) to compare mitogenic effects. Cells cultured in serum were also treated with interferon-α at 10, 100 and 1000 U/ml, while cells cultured in the various concentrations of bFGF were treated with 100 U/ml of interferon α.

[12] = test system: smooth muscle cell; conditions: also certain tumor cells; cited from earlier work
[13] = test system: cultured human leiomyoma smooth muscle cells; experiment: DNA synthesis (tritiated thymidine incorporation) in cultured leiomyoma smooth muscle cells; assay type: cell-based; conditions: for basal and serum-stimulated DNA synthesis (tritiated thymidine incorporation): interferon 10, 100, 1000 U/ml, 24 hr, serum-free 0.1% BSA or 10% fetal bovine serum
Method: as §3, §4, §5

[14] = test system: endometrial stromal cells; experiment: DNA synthesis in endometrial stromal cells; assay type: cell-based
Excerpt: Interferons blocked both bFGF and serum-stimulated DNA synthesis in these cells. […] The results also show the effects of increasing concentrations of interferon-alpha on serum stimulated DNA synthesis.
The results also show the effects of increasing concentrations of interferon-alpha (10, 100 and 1000 U/ml) on serum (2%) stimulated DNA synthesis.

[15] = bFGF 0.5-10 ng/ml with 100 U/ml interferon

**Q.** For `Cc1ccc(=O)n(-c2ccccc2)c1` [pirfenidone, 5-methyl-1-phenyl-2-(1H)-pyridone], which “levels of RNA for collagen type I” value [1] is on record?
**A.** reduced

**Q.** And the “levels of RNA for collagen type III” value [1]?
**A.** reduced

**Q.** And the cell proliferation [2]?
**A.** dose dependent inhibition

**Q.** And the “lactate dehydrogenase (LDH) levels” value [3]?
**A.** No significant effects

**Q.** What about the “cytotoxic effect on the cells” value ([3]; at the doses tested) of the same compound?
**A.** no cytotoxic effect

**Q.** And the “percentage of dead cells” value ([3]; only at 1.0 mg/ml, p<0.05)?
**A.** significant increase

**Q.** And the “levels of RNA for collagen type I” value [4]?
**A.** reduced

**Q.** And the “levels of RNA for collagen type III” value [4]?
**A.** reduced

**Q.** What about the cell proliferation [5] of the same compound?
**A.** dose dependent inhibition

**Q.** What about the “fibroblast proliferation in vitro” value [6] of the same compound?
**A.** inhibit fibroblast proliferation

**Q.** What about the “lactate dehydrogenase (LDH) levels” value [7] of the same compound?
**A.** No significant effects

**Q.** And the “cytotoxic effect on the cells” value ([7]; at the doses tested)?
**A.** no cytotoxic effect

**Q.** And the “percentage of dead cells” value ([7]; only at 1.0 mg/ml, p<0.05)?
**A.** significant increase

**Q.** With `Cc1ccc(C(=O)Nc2ccc(S(=O)(=O)O)c3cc(S(=O)(=O)O)cc(S(=O)(=O)O)c23)cc1NC(=O)c1cccc(NC(=O)Nc2cccc(C(=O)Nc3cc(C(=O)Nc4ccc(S(=O)(=O)O)c5cc(S(=O)(=O)O)cc(S(=O)(=O)O)c45)ccc3C)c2)c1` [suramin] as the compound, how does the FGF induced proliferation [8] read?
**A.** very potent inhibitor

**Q.** And the “binding of FGF to specific cell surface receptors” value [9]?
**A.** interfere with the ability of FGFs to bind

**Q.** With “bFGF: basic fibroblast growth factor, angiogenic growth factor” as the compound, how does the “proliferation of uterine stromal cells (cell number)” value [10] read?
**A.** stimulates the proliferation

**Q.** What about the “effect of growth factor on DNA synthesis” value ([11]; bFGF 0.5-10 ng/ml) of the same compound?
**A.** increase in DNA synthesis

**Q.** Which “binding of FGF to specific cell surface receptors” value [9] does the source give for heparin here?
**A.** inhibit FGF binding

**Q.** What about the “smooth muscle cell proliferation” value [12] of the same compound?
**A.** very good inhibitors

**Q.** What does the source list for interferon-α?
**A.** bFGF induced DNA synthesis [11, 15]: abolished the stimulating effect; basal and serum-stimulated DNA synthesis (tritiated thymidine incorporation) [11]: dose-dependent inhibition; basal and serum-stimulated DNA synthesis (tritiated thymidine incorporation) ([11]; listed as interferon alpha): tritiated thymidine incorporation decreases; bFGF induced DNA synthesis [13, 15]: inhibitory effect; basal and serum-stimulated DNA synthesis (tritiated thymidine incorporation) [13]: dose-dependent inhibition; basal and serum-stimulated DNA synthesis (tritiated thymidine incorporation) ([13]; listed as interferon alpha): tritiated thymidine incorporation decreases; serum-stimulated DNA synthesis ([14]; 2% serum, interferon 10, 100, 1000 U/ml): blocked; bFGF stimulated DNA synthesis ([14]; bFGF 0.1-5 ng/ml, 100 U/ml interferon): blocked
